The values that follow come from US10077261B2, “Imidazolin-5-one derivative useful as FASN inhibitors for the treatment of cancer” (Janssen Pharmaceutica NV, priority 2012, dated 2018).

The term inhibition denotes the relative decrease from the control value, in per cent.

This test has as its target T1, hFASN enzyme (full length) (Homo sapiens, UniProt P49327).
T1 construct: 10 μL hFASN enzyme (full length, 300 ng, purified in house); made in house
Description: Fatty Acid Synthase (FASN) inhibition scintillation proximity assay. The conditions noted are these: for inhibition at 10 µM: read-out: Human FASN % inhibition @ 10 μM, 10 μM test compound; for IC50: read-out: Human FASN pIC50 (converted). In kind it is biochemical. The essentials:
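Purified full-length hFASN (300 ng) converts ^3H-acetyl-CoA plus malonyl-CoA to ^3H-palmitate in 100 mM KH2PO4 pH 7.5, 1 mM DTT; compounds tested at 0.01–30 μM. Product captured on streptavidin imaging beads and read by LEADseeker at 610 nm after ≥24 h; 4-parameter logistic fit versus controls.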
Background: SPA uses beads or plates that emit light when radiolabelled molecules are held near them.

T1 sequence (P49327 whole entry): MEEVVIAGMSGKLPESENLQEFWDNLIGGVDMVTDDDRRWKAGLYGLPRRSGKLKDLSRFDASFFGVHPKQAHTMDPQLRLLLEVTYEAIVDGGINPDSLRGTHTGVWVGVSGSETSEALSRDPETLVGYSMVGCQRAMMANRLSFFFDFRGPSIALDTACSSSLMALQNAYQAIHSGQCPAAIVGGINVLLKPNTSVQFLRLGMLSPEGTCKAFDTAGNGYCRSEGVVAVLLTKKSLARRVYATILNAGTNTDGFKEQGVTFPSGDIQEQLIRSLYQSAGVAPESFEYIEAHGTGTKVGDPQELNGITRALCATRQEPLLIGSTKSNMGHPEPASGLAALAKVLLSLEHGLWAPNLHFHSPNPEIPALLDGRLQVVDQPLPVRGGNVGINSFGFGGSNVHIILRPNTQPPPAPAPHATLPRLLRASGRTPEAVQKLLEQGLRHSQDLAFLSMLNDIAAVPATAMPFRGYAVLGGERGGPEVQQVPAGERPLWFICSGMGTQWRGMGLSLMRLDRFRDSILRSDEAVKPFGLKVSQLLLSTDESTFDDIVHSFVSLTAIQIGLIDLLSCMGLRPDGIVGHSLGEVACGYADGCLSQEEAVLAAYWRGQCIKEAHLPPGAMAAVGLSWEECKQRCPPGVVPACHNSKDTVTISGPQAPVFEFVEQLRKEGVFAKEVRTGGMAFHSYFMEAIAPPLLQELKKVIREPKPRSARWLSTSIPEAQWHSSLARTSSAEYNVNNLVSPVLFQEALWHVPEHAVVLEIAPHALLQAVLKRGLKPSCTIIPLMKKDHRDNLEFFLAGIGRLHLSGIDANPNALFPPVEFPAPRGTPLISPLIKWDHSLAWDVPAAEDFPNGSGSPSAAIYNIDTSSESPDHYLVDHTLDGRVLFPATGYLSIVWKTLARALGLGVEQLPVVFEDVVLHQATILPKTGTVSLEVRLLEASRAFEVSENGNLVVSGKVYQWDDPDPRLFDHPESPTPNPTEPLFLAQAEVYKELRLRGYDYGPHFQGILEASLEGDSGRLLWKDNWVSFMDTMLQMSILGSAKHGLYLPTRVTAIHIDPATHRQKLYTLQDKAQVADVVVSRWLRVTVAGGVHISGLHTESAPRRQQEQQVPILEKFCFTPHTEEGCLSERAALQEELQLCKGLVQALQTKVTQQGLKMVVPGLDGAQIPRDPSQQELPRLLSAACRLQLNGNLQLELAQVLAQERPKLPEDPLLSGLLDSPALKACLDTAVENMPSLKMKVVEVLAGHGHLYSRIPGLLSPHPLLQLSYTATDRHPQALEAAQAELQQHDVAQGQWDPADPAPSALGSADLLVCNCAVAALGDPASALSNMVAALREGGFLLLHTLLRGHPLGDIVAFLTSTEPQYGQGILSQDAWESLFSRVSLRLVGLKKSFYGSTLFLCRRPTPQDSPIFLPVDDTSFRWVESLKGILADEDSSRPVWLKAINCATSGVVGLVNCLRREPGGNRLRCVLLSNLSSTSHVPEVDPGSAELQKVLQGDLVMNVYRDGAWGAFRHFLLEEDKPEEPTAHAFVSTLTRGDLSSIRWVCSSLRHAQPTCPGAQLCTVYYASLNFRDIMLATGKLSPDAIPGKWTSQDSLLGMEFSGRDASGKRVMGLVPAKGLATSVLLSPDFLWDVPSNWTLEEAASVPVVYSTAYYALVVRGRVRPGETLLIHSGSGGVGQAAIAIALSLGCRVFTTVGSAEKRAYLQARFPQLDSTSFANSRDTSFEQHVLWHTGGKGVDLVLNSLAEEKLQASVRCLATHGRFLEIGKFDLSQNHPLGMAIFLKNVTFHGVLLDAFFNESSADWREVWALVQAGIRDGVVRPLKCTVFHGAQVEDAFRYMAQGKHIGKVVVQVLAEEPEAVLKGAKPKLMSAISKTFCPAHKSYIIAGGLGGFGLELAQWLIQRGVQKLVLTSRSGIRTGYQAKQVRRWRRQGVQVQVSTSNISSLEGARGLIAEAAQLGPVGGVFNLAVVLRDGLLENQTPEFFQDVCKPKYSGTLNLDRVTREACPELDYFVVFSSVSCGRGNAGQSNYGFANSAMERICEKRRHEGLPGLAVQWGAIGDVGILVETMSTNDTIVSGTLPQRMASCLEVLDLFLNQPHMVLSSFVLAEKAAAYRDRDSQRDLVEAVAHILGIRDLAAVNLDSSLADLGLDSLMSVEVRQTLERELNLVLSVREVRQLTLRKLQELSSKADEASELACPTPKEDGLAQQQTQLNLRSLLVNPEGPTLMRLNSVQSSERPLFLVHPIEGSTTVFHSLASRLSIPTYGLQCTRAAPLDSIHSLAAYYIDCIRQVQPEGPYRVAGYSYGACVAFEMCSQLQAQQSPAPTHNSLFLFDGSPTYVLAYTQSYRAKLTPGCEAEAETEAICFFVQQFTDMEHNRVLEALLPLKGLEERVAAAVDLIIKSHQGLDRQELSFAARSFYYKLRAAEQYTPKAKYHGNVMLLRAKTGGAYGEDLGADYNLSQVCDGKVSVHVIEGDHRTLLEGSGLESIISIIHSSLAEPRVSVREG

On to `O=C(N1CCCC1)N1CC(CN2C(=O)C3(CCOC3)N=C2c2ccc(-c3ccc4occc4c3)cc2)C1` (stereo not shown) [compound 721, 2-[4-(1-Benzofuran-5-yl)phenyl]-3-{[1-(pyrrolidin-1-ylcarbonyl)azetidin-3-yl]methyl}-7-oxa-1,3-diazaspiro[4.4]non-1-en-4-one], for which the inhibition at 10 µM came out at 63% and the IC50 is 5.75 µM.

Turning to `Cn1ncc2cc(-c3ccc(C4=NC5(CCOC5)C(=O)N4CC4CN(C(=O)C5CC5)C4)cc3)ccc21` (stereo not shown) [compound 722, 3-{[1-(Cyclopropylcarbonyl)azetidin-3-yl]methyl}-2-[4-(1-methyl-1H-indazol-5-yl)phenyl]-7-oxa-1,3-diazaspiro[4.4]non-1-en-4-one], the inhibition at 10 µM was 56% and the IC50 is 6.61 µM.

On to `CC(O)C(=O)N1CC(CN2C(=O)C3(CCOC3)N=C2c2ccc(-c3ccc4c(cnn4C)c3)cc2)C1` (stereo not shown) [compound 723, 3-{[1-(2-Hydroxypropanoyl)azetidin-3-yl]methyl}-2-[4-(1-methyl-1H-indazol-5-yl)phenyl]-7-oxa-1,3-diazaspiro[4.4]non-1-en-4-one], for which the inhibition at 10 µM came out at 55% and the IC50 was 7.94 µM.

Turning to `Cn1ncc2cc(-c3ccc(C4=NC5(CCOC5)C(=O)N4CC4CN(C(=O)[C@H]5CCCO5)C4)cc3)ccc21` (stereo partly drawn) [compound 724, 2-[4-(1-Methyl-1H-indazol-5-yl)phenyl]-3-({1-[(2R)-tetrahydro-furan-2-ylcarbonyl]azetidin-3-yl}methyl)-7-oxa-1,3-diazaspiro[4.4]non-1-en-4-one], the inhibition at 10 µM stood at 47% and the IC50 was 4.17 µM.

`COC(=O)N1CC2(C1)N=C(c1ccc(-c3ccc(-c4cnn(C)c4)cc3)cc1)N(C[C@@H]1CCN(C(=O)C(C)O)C1)C2=O` (stereo partly drawn) [compound 726, Methyl 7-{[(3R)-1-(2-hydroxypropanoyl)pyrrolidin-3-yl]methyl}-6-[4′-(1-methyl-1H-pyrazol-4-yl)biphenyl-4-yl]-8-oxo-2,5,7-triazaspiro[3.4]oct-5-ene-2-carboxylate]: the inhibition at 10 µM was found to be 73% and the IC50 is 1.95 µM.

Turning to `COC(=O)N1CC2(C1)N=C(c1ccc(-c3ccc4cccnc4c3)cc1)N(C[C@@H]1CCN(C(=O)C(F)(F)F)C1)C2=O` [compound 731, Methyl 8-oxo-6-(4-quinolin-7-ylphenyl)-7-{[(3R)-1-(trifluoroacetyl)pyrrolidin-3-yl]methyl}-2,5,7-triazaspiro[3.4]oct-5-ene-2-carboxylate], the inhibition at 10 µM is 63% and the IC50 is 3.8 µM.

Take `COC(=O)N1CC2(C1)N=C(c1ccc(-c3ccc4cccnc4c3)cc1)N(C[C@@H]1CCN(C(=O)N3CCCC3)C1)C2=O` [compound 732, Methyl 8-oxo-7-{[(3S)-1-(pyrrolidin-1-ylcarbonyl)pyrrolidin-3-yl]methyl}-6-(4-quinolin-7-ylphenyl)-2,5,7-triazaspiro[3.4]oct-5-ene-2-carboxylate]: the inhibition at 10 µM is 88% and the IC50 was roughly 1.2 µM.

`COC(=O)N1CC2(C1)N=C(c1ccc(-c3ccc4occc4c3)cc1)N(C[C@@H]1CCN(C(=O)C(C)O)C1)C2=O` (stereo partly drawn) [compound 734, Methyl 6-[4-(1-benzofuran-5-yl)phenyl]-7-{[(3R)-1-(2-hydroxypropanoyl)pyrrolidin-3-yl]methyl}-8-oxo-2,5,7-triazaspiro[3.4]oct-5-ene-2-carboxylate]: the inhibition at 10 µM stood at 84% and the IC50 was 1.7 µM.

For the compound `COC(=O)N1CC2(C1)N=C(c1ccc(-c3ccc4c(cnn4C)c3)cc1)N(C[C@@H]1CCN(C(=O)C(C)O)C1)C2=O` (stereo partly drawn) [compound 738, Methyl 7-{[(3R)-1-(2-hydroxypropanoyl)pyrrolidin-3-yl]methyl}-6-[4-(1-methyl-1H-indazol-5-yl)phenyl]-8-oxo-2,5,7-triazaspiro[3.4]oct-5-ene-2-carboxylate], the inhibition at 10 µM stood at 80% and the IC50 was 1.91 µM.

`COC(=O)N1CC2(C1)N=C(c1ccc(-c3ccc4c(cnn4C)c3)cc1)N(C[C@@H]1CCN(C(=O)N3CCCC3)C1)C2=O` [compound 740, Methyl 6-[4-(1-methyl-1H-indazol-5-yl)phenyl]-8-oxo-7-{[(3S)-1-(pyrrolidin-1-ylcarbonyl)pyrrolidin-3-yl]methyl}-2,5,7-triazaspiro[3.4]oct-5-ene-2-carboxylate]: the inhibition at 10 µM is 46% and the IC50 is 8.91 µM.

Consider `CC(C)C(=O)N1CCC2(CC1)N=C(c1ccc(-c3ccc4[nH]ncc4c3)cc1)N(CC1CN(C(=O)C3CC3)C1)C2=O` [compound 754, 3-{[1-(Cyclopropylcarbonyl)azetidin-3-yl]methyl}-2-[4-(1H-indazol-5-yl)phenyl]-8-(2-methylpropanoyl)-1,3,8-triazaspiro[4.5]dec-1-en-4-one], for which the inhibition at 10 µM is 67% and the IC50 is 2.95 µM.

For `COCCN1CCC2(CC1)N=C(c1ccc(-c3ccc4[nH]ncc4c3)cc1)N(CC1CN(C(=O)C3CC3)C1)C2=O` [compound 756], the inhibition at 10 µM was found to be 82% and the IC50 was 1.58 µM.

Take `O=C(C1CC1)N1CC(CN2C(=O)C3(CCN(CCO)CC3)N=C2c2ccc(-c3ccc4[nH]ncc4c3)cc2)C1` [compound 758, 3-{[1-(Cyclopropylcarbonyl)azetidin-3-yl]methyl}-8-(2-hydroxyethyl)-2-[4-(1H-indazol-5-yl)phenyl]-1,3,8-triazaspiro[4.5]dec-1-en-4-one]: the inhibition at 10 µM is 71% and the IC50 was 3.39 µM.

Consider `Cn1cc(-c2ccc(-c3ccc(C4=NC5(CCNCC5)C(=O)N4CC4CN(C(=O)C5CC5)C4)cc3)cc2)cn1` [compound 759, 3-{[1-(Cyclopropylcarbonyl)azetidin-3-yl]methyl}-2-[4′-(1-methyl-1H-pyrazol-4-yl)biphenyl-4-yl]-1,3,8-triazaspiro[4.5]dec-1-en-4-one], for which the inhibition at 10 µM is 38% and the IC50 was 9.12 µM.

On to `CS(=O)(=O)N1CCC2(CC1)N=C(c1ccc(-c3ccc4occc4c3)cc1)N(CC1CN(C(=O)C3CC3)C1)C2=O` [compound 760, 2-[4-(1-Benzofuran-5-yl)phenyl]-3-{[1-(cyclopropylcarbonyl)azetidin-3-yl]methyl}-8-(methylsulfonyl)-1,3,8-triazaspiro[4.5]dec-1-en-4-one], for which the inhibition at 10 µM was found to be 62% and the IC50 is 4.79 µM.

Turning to `Cn1ncc2cc(-c3ccc(C4=NC5(CCN(S(C)(=O)=O)CC5)C(=O)N4CC4CN(C(=O)C5CC5)C4)cc3)ccc21` [compound 761, 3-{[1-(Cyclopropylcarbonyl)azetidin-3-yl]methyl}-2-[4-(1-methyl-1H-indazol-5-yl)phenyl]-8-(methylsulfonyl)-1,3,8-triazaspiro[4.5]dec-1-en-4-one], the inhibition at 10 µM was determined as 45% and the IC50 is roughly 7.59 µM.

In the case of `CS(=O)(=O)N1CCC2(CC1)N=C(c1ccc(-c3ccc4[nH]ncc4c3)cc1)N(CC1CN(C(=O)C3CC3)C1)C2=O` [compound 763, 3-{[1-(Cyclopropylcarbonyl)azetidin-3-yl]methyl}-2-[4-(1H-indazol-5-yl)phenyl]-8-(methylsulfonyl)-1,3,8-triazaspiro[4.5]dec-1-en-4-one], the inhibition at 10 µM came out at 63% and the IC50 was roughly 5.37 µM.

For `O=C(C1CC1)N1CC(CN2C(=O)C3(CCN(C(=O)C(F)(F)F)CC3)N=C2c2ccc(-c3ccc4occc4c3)cc2)C1` [compound 764, 2-[4-(1-Benzofuran-5-yl)phenyl]-3-{[1-(cycloprropylcarbonyl)azetidin-3-yl]methyl}-8-(trifluoroacetyl)-1,3,8-triazaspiro[4.5]dec-1-en-4-one], the inhibition at 10 µM was determined as 63% and the IC50 was roughly 4.37 µM.

Consider `O=C(C1CC1)N1CC(CN2C(=O)C3(CCN(C(=O)C(F)(F)F)CC3)N=C2c2ccc(-c3ccc4[nH]ncc4c3)cc2)C1` [compound 766, 3-{[1-(Cyclopropylcarbonyl)azetidin-3-yl]methyl}-2-[4-(1H-indazol-5-yl)phenyl]-8-(trifluoroacetyl)-1,3,8-triazaspiro[4.5]dec-1-en-4-one], for which the inhibition at 10 µM worked out at 67% and the IC50 is roughly 4.47 µM.

Take `CC(C)C(=O)N1CCC2(CC1)N=C(c1ccc(-c3ccc(-c4cnn(C)c4)cc3)cc1)N(CC1CN(C(=O)C3CC3)C1)C2=O` [compound 767, 3-{[1-(Cycloprropylcarbonyl)azetidin-3-yl]methyl}-8-(2-methylpropanoyl)-2-[4′-(1-methyl-1H-pyrazol-4-yl)biphenyl-4-yl]-1,3,8-triazaspiro[4.5]dec-1-en-4-one]: the inhibition at 10 µM was 76% and the IC50 was 1.91 µM.

For the compound `CN(C)CC(=O)N1CCC2(CC1)N=C(c1ccc(-c3ccc(-c4cnn(C)c4)cc3)cc1)N(CC1CN(C(=O)C3CC3)C1)C2=O` [compound 768, 3-{[1-(Cyclopropylcarbonyl)azetidin-3-yl]methyl}-8-(N,N-dimethylglycyl)-2-[4′-(1-methyl-1H-pyrazol-4-yl)biphenyl-4-yl]-1,3,8-triazaspiro[4.5]dec-1-en-4-one], the inhibition at 10 µM is 79% and the IC50 was 1.45 µM.

Turning to `Cn1cc(-c2ccc(-c3ccc(C4=NC5(CCN(S(C)(=O)=O)CC5)C(=O)N4CC4CN(C(=O)C5CC5)C4)cc3)cc2)cn1` [compound 769, 3-{[1-(Cyclopropylcarbonyl)azetidin-3-yl]methyl}-2-[4′-(1-methyl-1H-pyrazol-4-yl)biphenyl-4-yl]-8-(methylsulfonyl)-1,3,8-triazaspiro[4.5]dec-1-en-4-one], the inhibition at 10 µM amounted to 60% and the IC50 is 5.01 µM.

As to `Cn1cc(-c2ccc(-c3ccc(C4=NC5(CCN(C(=O)C6CC6)CC5)C(=O)N4CC4CN(C(=O)C5CC5)C4)cc3)cc2)cn1` [compound 770, 8-(Cyclopropylcarbonyl)-3-{[1-(cyclopropylcarbonyl)azetidin-3-yl]methyl}-2-[4′-(1-methyl-1H-pyrazol-4-yl)biphenyl-4-yl]-1,3,8-triazaspiro[4.5]dec-1-en-4-one], the inhibition at 10 µM came to 77% and the IC50 was 2.19 µM.
